A short description of data set [1]: Dialysis retention of JS-K (loading in micelles). As to conditions: 2 hours of dialysis; JS-K levels by HPLC; JS-K to polymer 10% by weight. It is filed as physicochemical. The procedure: This example illustrates the extent of JS-K loading in micelles. JS-K was loaded in Pluronic® P123 and L121 polymers to form micelles. The proportion of JS-K to Pluronic® polymer in solution was 10% by weight. The JS-K micelle preparations were then dialyzed for 2 hours. A parallel experiment following the same procedures with free JS-K was set up as a control. After 2 hours of dialysis, JS-K levels were measured by HPLC to estimate the percent of JS-K retained.

Data set [2] is described as follows: Stability in RPMI media with 10% Fetal Bovine Serum. As to conditions: RPMI/10% FBS, 37° C.; micelle 50, free 10 micromolar; average and SEM of 6. It is filed as in vitro ADME.
Method: (§1) The stability of JS-K in different media in vitro was evaluated. […] Concentrations of JS-K in the different media were measured at intervals up to 60 minutes using High Pressure Liquid Chromatography (HPLC). Area Under the Curve (AUC) HPLC measurements were used to determine the half-life (T1/2) and percent recovery of JS-K in the different media.
The subject of data set [3] is HL-60 cells. Nature of the data set: In vitro cytotoxicity, MTS assay. It counts as cell-based. The procedure: The in vitro cytotoxicity of JS-K in Pluronic® micelles was studied in this example. JS-K was loaded in F68, P105, or F127 Pluronic® micelles as described above. […] […] Similar control experiments were set-up with equivalent concentrations of each Pluronic® micelle without JS-K. After a 3 day incubation, cell growth was measured using the MTS assay. […] Equivalent empty micelles at equal concentrations (0.08% w/v) had no significant effect on cell growth (not shown).
A general note: Formazan colour is commonly taken as a measure of viable cells.

Data set [4] concerns HL-60 cells. Nature of the data set: In vivo anti-leukemic activity, HL-60 flank tumors. On the set-up: species or system NOD/SCID IL2Rγ^null mice. As to conditions: 4 μmol/kg intravenously 3 times per week; p=0.01 by F-test. The source says: This example illustrates the in vivo anti-leukemic activity of JS-K in Pluronic® micelles. NOD/SCID IL2Rγ^null mice were inoculated with 5×10^6 HL-60 cells in each flank. […] The proportion of JS-K to Pluronic® polymer in solution was 2.0% by weight. Injections were given 3 times per week intravenously. The dose of free and micelle-formulated JS-K was 4 μmol/kg. […] A linear mixed model using SAS PROC MIXED was fit to the data in FIG. 8, using a random effect to account for correlation among measurements within the same animal.

Data set [5] can be described thus: Effect on systemic blood pressure (tail cuff). As to conditions: 5 μmol/kg intravenous, awake mice, up to 2 hours. It counts as in vivo, NOD/SCID and NOD/SCID IL2Rγ^null mice. The source says: This example illustrates the effect of JS-K in Pluronic® micelles on systemic blood pressure. […] The proportion of JS-K to Pluronic® polymer in solution was 1.53% by weight.
Awake, unanesthetized NOD/SCID and NOD/SCID IL2Rγ^null mice were used for these experiments.

Data set [6] can be described thus: Stability in pooled human plasma. It is filed as in vitro ADME. As to conditions: 37° C., micelle 50, free 10 micromolar, average and SEM of 2.
Method: as §1

These results are taken from patent publication US9439915B2, “Activated nitric oxide donors and methods of making and using thereof” (University of Utah Research Foundation, priority 2008, dated 2016).

SMILES strings stand for the structures.

In the case of `CCOC(=O)N1CCN(/[N+]([O-])=N/Oc2ccc([N+](=O)[O-])cc2[N+](=O)[O-])CC1` [free JS-K, O^2-(2,4-dinitrophenyl) 1-[(4-ethoxycarbonyl)piperazin-1-yl]diazen-1-ium-1,2-diolate], the “Percent retention of JS-K after dialysis” value in data set [1] is on record as 31%. Also, the “percent recovery after 60 minute incubation” value is listed as 10.53+/−1.42% in data set [2] and 39+/−0% in data set [6]. For the same compound, the “inhibition of leukemia cell growth” value with HL-60 cells [3] (0.5 μM, 3 day incubation, MTS, JS-K to polymer 4% by weight) was 62%. Also, in the data set on HL-60 cells [3] (JS-K to polymer 1.97% by weight), the concentration for half-maximal inhibition (IC50) (in general, the point on the concentration scale where inhibition reaches its midpoint) turned out to be 450 nM. For the same compound, the “rate of tumor growth, free vs micelle JS-K (linear mixed model)” value in the data set with HL-60 cells [4] was “significantly higher”. Moreover, in data set [5], the “sustained drop in systolic blood pressure” value is given as “around 20 % of baseline”.
